# Experimental data taken from article PMC6979384, “Characterization of the plant homeodomain (PHD) reader family for their histone tail interactions” (Epigenetics & Chromatin, 2020).
# Assays:
# Experiment in all cases: Histone peptide microarray
# Format in all cases: binding, human
# Details in all cases: sheet "Array Heatmap"
# DIDO1 = test system: DIDO1
# Procedure, shortened: (§1)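 Using an optimized microarray protocol, purified GST-tagged PHD fingers were incubated at 0.5 μM on 293 histone peptides with single or multiple modifications, and array signal was recorded as the average of 4 replicates.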
# KDM5B (1) = test system: KDM5B (1)
# Procedure, shortened: as §1
# PHRF1 (RP) = test system: PHRF1 (RP)
# Procedure, shortened: as §1
# KDM4C (TTP) = test system: KDM4C (TTP)
# Procedure, shortened: as §1
# TRIM66 (PB) = test system: TRIM66 (PB)
# Procedure, shortened: as §1
# ING3 = test system: ING3
# Procedure, shortened: as §1
# AIRE (PP) = test system: AIRE (PP)
# Procedure, shortened: as §1
# MLL5 = test system: MLL5
# Procedure, shortened: as §1
# PHF2 = test system: PHF2
# Procedure, shortened: as §1
# ING4 = test system: ING4
# Procedure, shortened: as §1
# KDM7A = test system: KDM7A
# Procedure, shortened: as §1
# KDM5B (3) = test system: KDM5B (3)
# Procedure, shortened: as §1
# CHD4 (PPCC) = test system: CHD4 (PPCC)
# Procedure, shortened: as §1
# DPF2 (PPC2W2) = test system: DPF2 (PPC2W2)
# Procedure, shortened: as §1
# BAZ2B = test system: BAZ2B
# Procedure, shortened: as §1
# ING1 = test system: ING1
# Procedure, shortened: as §1
# TAF3 = test system: TAF3
# Procedure, shortened: as §1
# KDM5A (3) = test system: KDM5A (3)
# Procedure, shortened: as §1
# BPTF (PB) = test system: BPTF (PB)
# Procedure, shortened: as §1
# ING5 = test system: ING5
# Procedure, shortened: as §1
# PHF23 = test system: PHF23
# Procedure, shortened: as §1
# CHD5 (PPCC) = test system: CHD5 (PPCC)
# Procedure, shortened: as §1
# SP140L = test system: SP140L
# Procedure, shortened: as §1
# MORC3 (CW) = test system: MORC3 (CW)
# Procedure, shortened: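 Each reader, produced as a GST fusion and purified, was tested at 0.5 μM on synthetic histone peptides (293 in total) carrying single or combinatorial marks. Intensities averaged over four replicates.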
# RAG2 = test system: RAG2
# Procedure, shortened: as §1
# ING2 = test system: ING2
# Procedure, shortened: as §1
# CHD5 (PCC) = test system: CHD5 (PCC)
# Procedure, shortened: as §1
# PHF13 = test system: PHF13
# Procedure, shortened: as §1
# PHF8 = test system: PHF8
# Procedure, shortened: as §1
# KDM5A (1) = test system: KDM5A (1)
# Procedure, shortened: as §1
# PHF21A = test system: PHF21A
# Procedure, shortened: as §1
# [1] = GST-tagged reader, histone peptide array, total n = 4
substance,measurement,setting,value
H3K18ac (1-25): H3 1-25,"Array Heatmap signal, DIDO1",DIDO1; [1],0.8263
same,"Array Heatmap signal, KDM5B (1)",KDM5B (1); [1],0.7576
same,"Array Heatmap signal, PHRF1 (RP)",PHRF1 (RP); [1],0.8108
same,"Array Heatmap signal, KDM4C (TTP)",KDM4C (TTP); [1],0.575
same,"Array Heatmap signal, TRIM66 (PB)",TRIM66 (PB); [1],0.788
same,"Array Heatmap signal, ING3",ING3; [1],0.5765
same,"Array Heatmap signal, AIRE (PP)",AIRE (PP); [1],0.502
same,"Array Heatmap signal, MLL5",MLL5; [1],0.6155
same,"Array Heatmap signal, PHF2",PHF2; [1],0.6849
same,"Array Heatmap signal, ING4",ING4; [1],0.5434
same,"Array Heatmap signal, KDM7A",KDM7A; [1],0.4088
same,"Array Heatmap signal, KDM5B (3)",KDM5B (3); [1],0.5812
same,"Array Heatmap signal, CHD4 (PPCC)",CHD4 (PPCC); [1],0.699
same,"Array Heatmap signal, DPF2 (PPC2W2)",DPF2 (PPC2W2); [1],0.8287
same,"Array Heatmap signal, BAZ2B",BAZ2B; [1],0.5309
same,"Array Heatmap signal, ING1",ING1; [1],0.6071
same,"Array Heatmap signal, TAF3",TAF3; [1],0.3651
same,"Array Heatmap signal, KDM5A (3)",KDM5A (3); [1],0.7204
same,"Array Heatmap signal, BPTF (PB)",BPTF (PB); [1],0.4168
same,"Array Heatmap signal, ING5",ING5; [1],0.4305
same,"Array Heatmap signal, PHF23",PHF23; [1],0.5923
same,"Array Heatmap signal, CHD5 (PPCC)",CHD5 (PPCC); [1],0.6616
same,"Array Heatmap signal, SP140L",SP140L; [1],0.3993
same,"Array Heatmap signal, MORC3 (CW)",MORC3 (CW); [1],0.6771
same,"Array Heatmap signal, RAG2",RAG2; [1],0.3351
same,"Array Heatmap signal, ING2",ING2; [1],0.65
same,"Array Heatmap signal, CHD5 (PCC)",CHD5 (PCC); [1],0.844
same,"Array Heatmap signal, PHF13",PHF13; [1],0.7117
same,"Array Heatmap signal, PHF8",PHF8; [1],0.4195
same,"Array Heatmap signal, KDM5A (1)",KDM5A (1); [1],0.5632
same,"Array Heatmap signal, PHF21A",PHF21A; [1],0.5491
H3.3 75-94: H3.3 120-135,"Array Heatmap signal, DIDO1","DIDO1; GST-tagged DIDO1, arrays performed twice, total replicate number n = 4",0.6416
same,"Array Heatmap signal, KDM5B (1)","KDM5B (1); GST-tagged KDM5B (1), arrays performed twice, total replicate number n = 4",0.6676
same,"Array Heatmap signal, PHRF1 (RP)","PHRF1 (RP); GST-tagged PHRF1 (RP), arrays performed twice, total replicate number n = 4",0.4716
same,"Array Heatmap signal, KDM4C (TTP)","KDM4C (TTP); GST-tagged KDM4C (TTP), arrays performed twice, total replicate number n = 4",0.5145
same,"Array Heatmap signal, TRIM66 (PB)","TRIM66 (PB); GST-tagged TRIM66 (PB), arrays performed twice, total replicate number n = 4",0.5407
same,"Array Heatmap signal, ING3","ING3; GST-tagged ING3, arrays performed twice, total replicate number n = 4",0.473
same,"Array Heatmap signal, AIRE (PP)","AIRE (PP); GST-tagged AIRE (PP), arrays performed twice, total replicate number n = 4",0.502
same,"Array Heatmap signal, MLL5","MLL5; GST-tagged MLL5, arrays performed twice, total replicate number n = 4",0.5079
same,"Array Heatmap signal, PHF2","PHF2; GST-tagged PHF2, arrays performed twice, total replicate number n = 4",0.46
same,"Array Heatmap signal, ING4","ING4; GST-tagged ING4, arrays performed twice, total replicate number n = 4",0.4549
same,"Array Heatmap signal, KDM7A","KDM7A; GST-tagged KDM7A, arrays performed twice, total replicate number n = 4",0.3506
same,"Array Heatmap signal, KDM5B (3)","KDM5B (3); GST-tagged KDM5B (3), arrays performed twice, total replicate number n = 4",0.4774
same,"Array Heatmap signal, CHD4 (PPCC)","CHD4 (PPCC); GST-tagged CHD4 (PPCC), arrays performed twice, total replicate number n = 4",0.5423
same,"Array Heatmap signal, DPF2 (PPC2W2)","DPF2 (PPC2W2); GST-tagged DPF2 (PPC2W2), arrays performed twice, total replicate number n = 4",0.6426
same,"Array Heatmap signal, BAZ2B","BAZ2B; GST-tagged BAZ2B, arrays performed twice, total replicate number n = 4",0.4527
same,"Array Heatmap signal, ING1","ING1; GST-tagged ING1, arrays performed twice, total replicate number n = 4",0.5031
same,"Array Heatmap signal, TAF3","TAF3; GST-tagged TAF3, arrays performed twice, total replicate number n = 4",0.2603
same,"Array Heatmap signal, KDM5A (3)","KDM5A (3); GST-tagged KDM5A (3), arrays performed twice, total replicate number n = 4",0.454
same,"Array Heatmap signal, BPTF (PB)","BPTF (PB); GST-tagged BPTF (PB), arrays performed twice, total replicate number n = 4",0.3448
same,"Array Heatmap signal, ING5","ING5; GST-tagged ING5, arrays performed twice, total replicate number n = 4",0.3621
same,"Array Heatmap signal, PHF23","PHF23; GST-tagged PHF23, arrays performed twice, total replicate number n = 4",0.5259
same,"Array Heatmap signal, CHD5 (PPCC)","CHD5 (PPCC); GST-tagged CHD5 (PPCC), arrays performed twice, total replicate number n = 4",0.563
same,"Array Heatmap signal, SP140L","SP140L; GST-tagged SP140L, arrays performed twice, total replicate number n = 4",0.3784
same,"Array Heatmap signal, MORC3 (CW)","MORC3 (CW); GST-tagged MORC3 (CW), arrays performed twice, total replicate number n = 4",0.3704
same,"Array Heatmap signal, RAG2","RAG2; GST-tagged RAG2, arrays performed twice, total replicate number n = 4",0.2477
same,"Array Heatmap signal, ING2","ING2; GST-tagged ING2, arrays performed twice, total replicate number n = 4",0.5986
same,"Array Heatmap signal, CHD5 (PCC)","CHD5 (PCC); GST-tagged CHD5 (PCC), arrays performed twice, total replicate number n = 4",0.7355
same,"Array Heatmap signal, PHF13","PHF13; GST-tagged PHF13, arrays performed twice, total replicate number n = 4",0.6071
same,"Array Heatmap signal, PHF8","PHF8; GST-tagged PHF8, arrays performed twice, total replicate number n = 4",0.3469
same,"Array Heatmap signal, KDM5A (1)","KDM5A (1); GST-tagged KDM5A (1), arrays performed twice, total replicate number n = 4",0.468
same,"Array Heatmap signal, PHF21A","PHF21A; GST-tagged PHF21A, arrays performed twice, total replicate number n = 4",0.449
